The values below come from US20150141523A1, “COMPOUNDS FOR USE IN THE TREATMENT OF AUTOIMMUNE INFLAMMATORY DISEASE” (Venantius Limited, priority 2012, published 2015).

One assay concerns BalbC mice. As to the kind of experiment: Arachidonic acid mouse ear oedema model. In kind it is in vivo. The settings on record: 300 μg/ear in acetone, topical; arachidonic acid alone 86%. As to the method: The arrachidonic mouse ear oedema model is an acute inflammation model based on activation of ecosanoid pathways. The mouse ear oedema model was performed using BalbC mice (25-35 g), of either sex. The ear was treated by the topical application (10 μl) of solvent (acetone 100%) or test drug (300 μg/ear in acetone) or Indomethacin (300 μg/ear in acetone). After one hour, oedema was induced by the topical application of arachidonic acid (10 μl at 0.4 g/ml in acetone). The width of each ear was measured, both before and 60 min after the induction of oedema, using a micrometer screw gauge. Ear oedema was calculated by comparing the ear width before and after induction of oedema and expressed as percentage normal. Animals were killed using CO2, without recovering from sedation.

A further assay relates to CD-1 mice. The assay can be described thus: Methylated bovine serum albumin (mBSA) delayed-type hypersensitivity mouse paw swelling. Format: in vivo. The conditions noted are these: 10 mg/kg i.p.; mBSA challenge alone 107%. The protocol:
CD-1 mice (25-35 gms) were anaesthetised with halothane and immunised intradermal (i.d.) with mBSA/Freunds complete adjuvant containing Mycobacterium butyricum (FCA(B)) emulsion at four sites (62.5 μg/25 μl at each site) on the shaved chest on day 1. The mBSA/FCA(B) is prepared by emulsifying equal volumes of mBSA and FCA(B) solutions (the mBSA solution was first prepared in sterile isotonic saline at a concentration of 5 mg/mL). On days 8 and 9, mice were dosed intraperitoneal (i.p.) with either 1% carboxymethylcellulose (CMC), CycA or a novel compound in 1% CMC. Two hours after the second i.p. dose (day 9), anaesthetised mice were challenged, by injecting mBSA in saline subcutaneous (s.c.) in the dorsal surface of the right hind paw and s.c. in the left hind paw with saline alone (20 μl each injection). 24 hours later, mice were sacrificed by cervical dislocation, and the swelling of each paw was measured in triplicate with a plethysmometer.
Paw swelling (% difference)={mBSA injected paw volume (mls)}−{saline injected paw volume (mls)}×100%
Saline Injected Paw Volume (mls)

In a further assay the test system is Balb/C mice. As to the kind of experiment: 5% DSS-induced murine colitis model. The settings on record: for inhibition of DAI in DSS-induced colitis: 5% DSS colitis (FIG. 9). Format: in vivo, mouse.
For assay [1], the system named is β-hexosaminidase release from RBL-2H3 cells. The settings on record: RBL-2H3 cells stimulated by calcium ionophore A23187; Bioorg. Med. Chem. Lett. 19(20), 2009; cited from earlier work.

Consider `O[C@@H]1c2ccccc2C[C@]1(Cc1ccccc1)C1=Cc2ccccc2C1` (mixture of isomers) [Compound 5, (R,S and SR)2-Benzyl-2,3-dihydro-1H,1′H-2,2′-biinden-1-ol], for which the “ear swelling (increase in ear thickness)” value in the assay with BalbC mice is listed as 62%. Besides, the mBSA paw swelling with CD-1 mice is given as 72%. For the same molecule, the “inhibition of DAI in DSS-induced colitis” value in the assay with Balb/C mice is given as “only 6 caused a significant”. In addition, the “inhibition of β-hexosaminidase release” value in assay [1] was “dose-dependant inhibition”.

With `O[C@H]1c2ccccc2C[C@]1(Cc1ccccc1)C1=Cc2ccccc2C1` (mixture of isomers) [Compound 6, (S,S and RR)2-Benzyl-2,3-dihydro-1H,1′H-2,2′-biinden-1-ol], the “ear swelling (increase in ear thickness)” value with BalbC mice is reported as 50%. The molecule also yielded a mBSA paw swelling in the assay on CD-1 mice of 71%. The “inhibition of DAI in DSS-induced colitis” value in the assay with Balb/C mice is listed as “significant (P<0.01) inhibition”. Also, in the assay with Balb/C mice (5% DSS colitis, 30 mg/kg p.o. (FIG. 8)), the “effect on DSS-induced weight loss” value was “ameliorated”.
